Assay results taken from patent US9023821B2, “Use of MicroRNA for treating diseases associated with a dysfunction of the cilia in multiciliated epithelial cells” (Centre National de la Recherche Scientifique, priority 2009, dated 2015).

Assays:
[1] = test system: human airway epithelial cells (HAECs); test: High-throughput sequencing (HTS) of miRNAs at four stages of differentiation of HAECs; conditions: for Modulation (ratio of the level of intensity of expression in log2 in two stages of differentiation) measured by high-throughput sequencing, D7 − D0 / Modulation (ratio of the level of intensity of expression in log2 in two stages of differentiation) measured by high-throughput sequencing, FC − D7 / Modulation (ratio of the level of intensity of expression in log2 in two stages of differentiation) measured by high-throughput sequencing, WD − D0 / Modulation (ratio of the level of intensity of expression in log2 in two stages of differentiation) measured by high-throughput sequencing, WD − FC / Level of intensity of expression in log2 measured by high-throughput sequencing, D0 / Level of intensity of expression in log2 measured by high-throughput sequencing, D7 / Level of intensity of expression in log2 measured by high-throughput sequencing, FC / Level of intensity of expression in log2 measured by high-throughput sequencing, WD: Table VI; for Level of intensity of expression in log2 At the differentiated stage (WD) measured in HTS: healthy human airway epithelial tissue; for Level of intensity of expression in log2 measured by high-throughput sequencing, D0: stage D0; for Level of intensity of expression in log2 measured by high-throughput sequencing, D7: stage D7; for Level of intensity of expression in log2 measured by high-throughput sequencing, FC: stage FC; for Level of intensity of expression in log2 At the differentiated stage (WD) measured in HTS / Level of intensity of expression in log2 measured by high-throughput sequencing, WD: stage WD; for Modulation (ratio of the level of intensity of expression in log2 in two stages of differentiation), D7 − D0 / Modulation (ratio of the level of intensity of expression in log2 in two stages of differentiation), FC − D7 / Modulation (ratio of the level of intensity of expression in log2 in two stages of differentiation), WD − FC / Abundance (%), D0 / Abundance (%), D7 / Abundance (%), FC / Abundance (%), WD: HTS; for Abundance (%), D0: ALI-D0; for Abundance (%), D7: ALI-D7; for Abundance (%), FC: ALI-FC; for Abundance (%), WD: ALI-WD
Procedure, shortened: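 Cells at four air-liquid interface differentiation stages were lysed and total RNA with miRNAs purified. Adaptor Mix A or B ligation (16° C, 2-16 h) allowed 5′ or 3′ end sequencing. Abundance cut-off was 1% of total miRNAs in at least one stage.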

[2] = test system: human airway epithelial cells (HAECs); test: Agilent miRNA chips, miRNA expression at four stages of differentiation of HAECs; conditions: for Modulation (ratio of the level of intensity of expression in log2 in two stages of differentiation) measured with the Agilent chips, D7 − D0 / Modulation (ratio of the level of intensity of expression in log2 in two stages of differentiation) measured with the Agilent chips, FC − D7 / Modulation (ratio of the level of intensity of expression in log2 in two stages of differentiation) measured with the Agilent chips, WD − D0 / Modulation (ratio of the level of intensity of expression in log2 in two stages of differentiation) measured with the Agilent chips, WD − FC / Level of intensity of expression in log2 measured with the Agilent chips, D0 / Level of intensity of expression in log2 measured with the Agilent chips, D7 / Level of intensity of expression in log2 measured with the Agilent chips, FC / Level of intensity of expression in log2 measured with the Agilent chips, WD: Table VI; for Modulation (ratio of the level of intensity of expression in log2 at two stages of differentiation), FC − D7 / Modulation (ratio of the level of intensity of expression in log2 at two stages of differentiation), WD − FC: Agilent miRNA chips, Table V; for Level of intensity of expression in log2 measured with the Agilent chips, D0: stage D0; for Level of intensity of expression in log2 measured with the Agilent chips, D7: stage D7; for Level of intensity of expression in log2 measured with the Agilent chips, FC: stage FC; for Level of intensity of expression in log2 measured with the Agilent chips, WD: stage WD
Procedure, shortened: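 RNA from the same patients' HAECs at four differentiation stages was labelled and hybridized with the Agilent miRNA labeling and hybridization kit. Chips were Human miRNA Microarray v2, with 866 human and 89 viral miRNAs (miRBase v12.0). Profiles were compared with high-throughput sequencing data.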

[3] = test system: basal cells and pyramidal cells of the airway epithelium; test: miRNA expression in sorted basal cells versus pyramidal cells (ciliated + secretory), HTS and Agilent chips; set-up: species or system human; conditions: for Modulation of expression of the miRNAs in pyramidal cells (323(−)) relative to basal cells 323(+): HTS and Agilent chips; for Intensity of the level of expression in log2 in pyramidal cells (323(−)): pyramidal cells (ciliated + secretory)
Procedure, shortened: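 Read-out is miRNA profiling of total RNA, by Agilent chips or by high-throughput sequencing, in two sorted populations. These were basal cells (CD151+/TF+) and pyramidal ciliated/secretory cells (CD151−/TF−) from airway epithelium of 3 donors.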

Substance: hsa-miR-224: human miRNA, SEQ ID No. 24 (CAAGUCACUAGUGGUUCCGUU; expressed or natural sequence; listed as Homo sapiens)
- Modulation (ratio of the level of intensity of expression in log2 in two stages of differentiation) measured by high-throughput sequencing, D7 − D0 [1]: 1.52 log2
- Modulation (ratio of the level of intensity of expression in log2 in two stages of differentiation) measured by high-throughput sequencing, FC − D7 [1]: −0.72 log2
- Modulation (ratio of the level of intensity of expression in log2 in two stages of differentiation) measured by high-throughput sequencing, WD − D0 [1]: 1.63 log2
- Modulation (ratio of the level of intensity of expression in log2 in two stages of differentiation) measured by high-throughput sequencing, WD − FC [1]: 0.83 log2
- Level of intensity of expression in log2 At the differentiated stage (WD) measured in HTS [1]: 14.10 log2
- Level of intensity of expression in log2 measured by high-throughput sequencing, D0 [1]: 9.59 log2
- Level of intensity of expression in log2 measured by high-throughput sequencing, D7 [1]: 11.12 log2
- Level of intensity of expression in log2 measured by high-throughput sequencing, FC [1]: 10.39 log2
- Level of intensity of expression in log2 measured by high-throughput sequencing, WD [1]: 11.22 log2
- Modulation (ratio of the level of intensity of expression in log2 in two stages of differentiation) measured with the Agilent chips, D7 − D0 [2]: 2.55 log2
- Modulation (ratio of the level of intensity of expression in log2 at two stages of differentiation), FC − D7 [2]: −0.87 log2
- Modulation (ratio of the level of intensity of expression in log2 in two stages of differentiation) measured with the Agilent chips, FC − D7 [2]: −0.87 log2
- Modulation (ratio of the level of intensity of expression in log2 in two stages of differentiation) measured with the Agilent chips, WD − D0 [2]: 1.68 log2
- Modulation (ratio of the level of intensity of expression in log2 at two stages of differentiation), WD − FC [2]: 0.00 log2
- Modulation (ratio of the level of intensity of expression in log2 in two stages of differentiation) measured with the Agilent chips, WD − FC [2]: 0.00 log2
- Level of intensity of expression in log2 measured with the Agilent chips, D0 [2]: 6.84 log2
- Level of intensity of expression in log2 measured with the Agilent chips, D7 [2]: 9.40 log2
- Level of intensity of expression in log2 measured with the Agilent chips, FC [2]: 8.52 log2
- Level of intensity of expression in log2 measured with the Agilent chips, WD [2]: 8.52 log2
- Modulation of expression of the miRNAs in pyramidal cells (323(−)) relative to basal cells 323(+) [3]: −2.84
- Intensity of the level of expression in log2 in basal cells (323(+)) [3]: 3.65 log2
- Intensity of the level of expression in log2 in pyramidal cells (323(−)) [3]: 0.82 log2

Substance: hsa-miR-205: human miRNA, SEQ ID No. 20 (UCCUUCAUUCCACCGGAGUCUG; expressed or natural sequence; listed as Homo sapiens)
- Modulation (ratio of the level of intensity of expression in log2 in two stages of differentiation) measured by high-throughput sequencing, D7 − D0 [1]: 0.62 log2
- Modulation (ratio of the level of intensity of expression in log2 in two stages of differentiation) measured by high-throughput sequencing, FC − D7 [1]: −1.12 log2
- Modulation (ratio of the level of intensity of expression in log2 in two stages of differentiation), D7 − D0 [1]: 0.62 log2
- Modulation (ratio of the level of intensity of expression in log2 in two stages of differentiation), FC − D7 [1]: −1.12 log2
- Modulation (ratio of the level of intensity of expression in log2 in two stages of differentiation), WD − FC [1]: 0.44 log2
- Abundance (%), D0 [1]: 5.48%
- Abundance (%), D7 [1]: 8.43%
- Abundance (%), FC [1]: 3.76%
- Abundance (%), WD [1]: 3.87%
- Modulation (ratio of the level of intensity of expression in log2 in two stages of differentiation) measured by high-throughput sequencing, WD − D0 [1]: −0.06 log2
- Modulation (ratio of the level of intensity of expression in log2 in two stages of differentiation) measured by high-throughput sequencing, WD − FC [1]: 0.44 log2
- Level of intensity of expression in log2 At the differentiated stage (WD) measured in HTS [1]: 15.24 log2
- Level of intensity of expression in log2 measured by high-throughput sequencing, D0 [1]: 14.61 log2
- Level of intensity of expression in log2 measured by high-throughput sequencing, D7 [1]: 15.23 log2
- Level of intensity of expression in log2 measured by high-throughput sequencing, FC [1]: 14.11 log2
- Level of intensity of expression in log2 measured by high-throughput sequencing, WD [1]: 14.55 log2
- Modulation (ratio of the level of intensity of expression in log2 in two stages of differentiation) measured with the Agilent chips, D7 − D0 [2]: 1.00 log2
- Modulation (ratio of the level of intensity of expression in log2 in two stages of differentiation) measured with the Agilent chips, FC − D7 [2]: −0.72 log2
- Modulation (ratio of the level of intensity of expression in log2 in two stages of differentiation) measured with the Agilent chips, WD − D0 [2]: −0.11 log2
- Modulation (ratio of the level of intensity of expression in log2 in two stages of differentiation) measured with the Agilent chips, WD − FC [2]: −0.39 log2
- Level of intensity of expression in log2 measured with the Agilent chips, D0 [2]: 13.18 log2
- Level of intensity of expression in log2 measured with the Agilent chips, D7 [2]: 14.18 log2
- Level of intensity of expression in log2 measured with the Agilent chips, FC [2]: 13.46 log2
- Level of intensity of expression in log2 measured with the Agilent chips, WD [2]: 13.07 log2
- Modulation of expression of the miRNAs in pyramidal cells (323(−)) relative to basal cells 323(+) [3]: −7.00
- Intensity of the level of expression in log2 in basal cells (323(+)) [3]: 12.44 log2
- Intensity of the level of expression in log2 in pyramidal cells (323(−)) [3]: 5.44 log2
- cell type in which the miRNA is specifically expressed ([3]; sorted ciliated/pyramidal versus basal cells): more specific to the basal cells

Substance: hsa-miR-29c: human miRNA, SEQ ID No. 32 (UAGCACCAUUUGAAAUCGGUUA; expressed or natural sequence; listed as Homo sapiens)
- Modulation (ratio of the level of intensity of expression in log2 in two stages of differentiation) measured by high-throughput sequencing, D7 − D0 [1]: 0.82 log2
- Modulation (ratio of the level of intensity of expression in log2 in two stages of differentiation) measured by high-throughput sequencing, FC − D7 [1]: 0.02 log2
- Modulation (ratio of the level of intensity of expression in log2 in two stages of differentiation), D7 − D0 [1]: 0.82 log2
- Modulation (ratio of the level of intensity of expression in log2 in two stages of differentiation), FC − D7 [1]: 0.02 log2
- Modulation (ratio of the level of intensity of expression in log2 in two stages of differentiation), WD − FC [1]: 0.03 log2
- Abundance (%), D0 [1]: 2.84%
- Abundance (%), D7 [1]: 5.03%
- Abundance (%), FC [1]: 4.95%
- Abundance (%), WD [1]: 3.82%
- Modulation (ratio of the level of intensity of expression in log2 in two stages of differentiation) measured by high-throughput sequencing, WD − D0 [1]: 0.87 log2
- Modulation (ratio of the level of intensity of expression in log2 in two stages of differentiation) measured by high-throughput sequencing, WD − FC [1]: 0.03 log2
- Level of intensity of expression in log2 At the differentiated stage (WD) measured in HTS [1]: 9.74 log2
- Level of intensity of expression in log2 measured by high-throughput sequencing, D0 [1]: 13.66 log2
- Level of intensity of expression in log2 measured by high-throughput sequencing, D7 [1]: 14.48 log2
- Level of intensity of expression in log2 measured by high-throughput sequencing, FC [1]: 14.50 log2
- Level of intensity of expression in log2 measured by high-throughput sequencing, WD [1]: 14.53 log2
- Modulation (ratio of the level of intensity of expression in log2 in two stages of differentiation) measured with the Agilent chips, D7 − D0 [2]: 1.61 log2
- Modulation (ratio of the level of intensity of expression in log2 at two stages of differentiation), FC − D7 [2]: −0.28 log2
- Modulation (ratio of the level of intensity of expression in log2 in two stages of differentiation) measured with the Agilent chips, FC − D7 [2]: −0.28 log2
- Modulation (ratio of the level of intensity of expression in log2 in two stages of differentiation) measured with the Agilent chips, WD − D0 [2]: 1.57 log2
- Modulation (ratio of the level of intensity of expression in log2 at two stages of differentiation), WD − FC [2]: 0.24 log2
- Modulation (ratio of the level of intensity of expression in log2 in two stages of differentiation) measured with the Agilent chips, WD − FC [2]: 0.24 log2
- Level of intensity of expression in log2 measured with the Agilent chips, D0 [2]: 9.04 log2
- Level of intensity of expression in log2 measured with the Agilent chips, D7 [2]: 10.66 log2
- Level of intensity of expression in log2 measured with the Agilent chips, FC [2]: 10.38 log2
- Level of intensity of expression in log2 measured with the Agilent chips, WD [2]: 10.62 log2
- Modulation of expression of the miRNAs in pyramidal cells (323(−)) relative to basal cells 323(+) [3]: −3.06
- Intensity of the level of expression in log2 in basal cells (323(+)) [3]: 11.06 log2
- Intensity of the level of expression in log2 in pyramidal cells (323(−)) [3]: 8.00 log2
